Values after ≈ are worked out from the molar mass of the structure shown. Active and inactive are the calls of the source. No cut-off for these calls is given here.

As usually defined, the MIC is the lowest concentration found to suppress growth. High values mean a less susceptible organism, low ones a more susceptible organism.

One assay deals with Mycolicibacterium phlei. Put plainly: Antibacterial activity against Mycobacterium phlei after 24 hrs. In kind it is functional.
A further assay has as its system Staphylococcus simulans. The experiment in a line: Antibacterial activity against Staphylococcus simulans 22 after 24 hrs. In kind it is functional. To be noted: Staphylococcus simulans, 22, 24 h.
Assay [1] deals with Bacillus licheniformis. The experiment in a line: Antibacterial activity against Bacillus licheniformis MW3 after 24 hrs. The assay is classed as functional. To be noted: MW3, 24 h.
In assay [2] the test system is Staphylococcus aureus. Put plainly: Antibacterial activity against Staphylococcus aureus. In kind it is functional.
The subject of another assay is Priestia megaterium. The experiment in a line: Antibacterial activity against Bacillus megaterium. In kind it is functional.
Another assay concerns Bacillus cereus. The experiment in a line: Antibacterial activity against Bacillus cereus after 24 hrs. The assay is classed as functional.
The subject of a further assay is Micrococcus luteus. The experiment in a line: Antibacterial activity against Micrococcus luteus ATCC 4698 after 24 hrs. The assay is classed as functional. To be noted: ATCC 4698, 24 h.
A further assay has as its system Bacillus subtilis. The experiment in a line: Antibacterial activity against Bacillus subtilis 168 after 24 hrs. In kind it is functional. To be noted: subsp. subtilis str. 168, 24 h.
The test system of assay [3] is Mycolicibacterium smegmatis. The experiment in a line: Antibacterial activity against Mycobacterium smegmatis after 24 hrs. In kind it is functional.
The test system of assay [4] is Wolbachia. The experiment in a line: Antibacterial activity against Wolbachia infected in C6/36 cells assessed as decrease in 16s rRNA copies at 0.01, 0.1 and 0.5 microg/ml by qPCR analysis. In kind it is functional, cell-based. On the technique in general: Real-time PCR tracks product formation cycle by cycle.
For assay [5], the system named is Bacillus licheniformis. The experiment in a line: Antibacterial activity against Bacillus licheniformis DSM13 after 24 hrs. The following applies: DSM 13 = ATCC 14580, 24 h. The assay is classed as functional.
Assay [6] concerns Staphylococcus aureus. The experiment in a line: Antibacterial activity against Staphylococcus aureus SG511 after 24 hrs. The following applies: SG511, 24 h. The assay is classed as functional.
Assay [7] has as its system Wolbachia. The experiment in a line: Antibacterial activity against Wolbachia infected in C6/36 cells assessed as decrease in 16s rRNA copies by qPCR analysis. In kind it is functional, cell-based.
Assay [8] has as its system Wolbachia. Put plainly: Antibacterial activity against Wolbachia. The assay is classed as functional.
The test system of another assay is Escherichia coli. Put plainly: Antibacterial activity against Escherichia coli. The assay is classed as functional, organism-based.

As to `C/C=C/C/C=C(/C)[C@@H](CC/C(C)=C/C=C(\C)C(=O)c1c(O)cc([C@H](C)CC/C=C/NC(=O)OC)oc1=O)OC(=O)[C@@](OC)(c1ccccc1)C(F)(F)F`, the MIC in the assay on Mycolicibacterium phlei is over 64 µg/mL; in the assay on Staphylococcus simulans it was 64 µg/mL (≈ 86 µM); with Bacillus licheniformis [1], over 16 µg/mL.

With `C/C=C/C/C=C(/C)[C@@H](CC/C(C)=C/C=C(\C)C(=O)c1c(O)cc([C@H](C)CC/C=C/NC(=O)OC)oc1=O)OC(=O)[C@](OC)(c1ccccc1)C(F)(F)F`, the MIC was over 64 µg/mL against Mycolicibacterium phlei, 32 µg/mL (≈ 43 µM) against Staphylococcus simulans and over 16 µg/mL against Bacillus licheniformis [1].

On to `C/C=C/C/C=C(/C)[C@@H](CC/C(C)=C/C=C(\C)C(=O)c1c(O)cc([C@H](C)CC/C=C/NC(=O)OC)oc1=O)OC(C)=O`, for which the MIC is over 64 µg/mL with Mycolicibacterium phlei, 64 µg/mL (≈ 112 µM) against Staphylococcus simulans and 64 µg/mL (≈ 112 µM) in the assay with Bacillus licheniformis [1].

For the molecule `C/C=C/C/C=C(/C)C(O)CC/C(C)=C\C=C(/C)C(=O)c1c(O)cc([C@H](C)CC/C=C/NC(=O)OC)oc1=O` (some centres not stated), the MIC in the assay on Staphylococcus aureus [2] was 0.1 µg/mL (≈ 0.19 µM); in the assay on Priestia megaterium it was 0.8 µg/mL (≈ 1.52 µM).

For the molecule `C/C=C/C/C=C(/C)[C@@H](CC/C(C)=C/C=C(\C)C(=O)c1c(O)cc([C@H](C)CC/C=C/NC(=O)OC)oc1=O)OC(=O)c1ccccc1`, the MIC with Mycolicibacterium phlei was over 64 µg/mL; with Staphylococcus simulans, over 64 µg/mL; in the assay on Bacillus licheniformis [1], 64 µg/mL (≈ 101 µM).

As to `C/C=C/C/C=C(/C)[C@@H](CC/C(C)=C/C=C(\C)C(=O)c1c(O)cc([C@H](C)CC/C=C/NC(=O)OC)oc1=O)OC(=O)COC(C)=O`, the minimal inhibitory concentration (MIC) with Staphylococcus simulans and against Bacillus licheniformis [1] was over 64 µg/mL in each case.

Turning to `C/C=C/C/C=C(/C)C1CCC(C)(C/C=C(\C)C(=O)c2c(O)cc([C@H](C)CC/C=C/NC(=O)OC)oc2=O)O1` (some centres not stated), the MIC against Staphylococcus aureus [2] worked out at 0.4 µg/mL (≈ 0.758 µM); in the assay with Priestia megaterium it was 1.6 µg/mL (≈ 3.03 µM).

Consider `C/C=C/C/C=C(/C)CCC/C(C)=C/C=C(\C)C(=O)c1c(O)cc([C@H](C)CC/C=C/NC(=O)OC)oc1=O`, for which the minimal inhibitory concentration (MIC) with Bacillus cereus was 2 µg/mL (≈ 3.91 µM); in the assay on Micrococcus luteus, 4 µg/mL (≈ 7.82 µM); with Bacillus subtilis, 32 µg/mL (≈ 62.5 µM); in assay [3], over 64 µg/mL; against Bacillus licheniformis [5], 4 µg/mL (≈ 7.82 µM); against Staphylococcus simulans, 4 µg/mL (≈ 7.82 µM). The molecule further displayed an MIC against Staphylococcus aureus [6] of 2 µg/mL (≈ 3.91 µM). Also, in the assay with Wolbachia [4], the inhibition entry was “Active”.

On to `C/C=C/C/C=C(\C)C(O)CC/C(C)=C/C=C(\C)C(=O)c1c(O)cc([C@H](C)CC/C=C/NC(=O)OC)oc1=O` (some centres not stated) [CORALLOPYRONIN A], for which the MIC against Bacillus cereus was 2 µg/mL (≈ 3.79 µM); against Micrococcus luteus it was 1 µg/mL (≈ 1.9 µM); in the assay with Bacillus subtilis, 16 µg/mL (≈ 30.3 µM); in assay [3], over 64 µg/mL; against Bacillus licheniformis [5] it was 2 µg/mL (≈ 3.79 µM); with Mycolicibacterium phlei, over 64 µg/mL. Besides, the values for the MIC with Staphylococcus simulans, against Bacillus licheniformis [1] and against Staphylococcus aureus [6] were 1 µg/mL (≈ 1.9 µM), 64 µg/mL (≈ 121 µM) and 0.5 µg/mL (≈ 0.948 µM), respectively. In the assay on Wolbachia [7], the inhibition result is “Dose-dependent effect”.

As for `CCCCCCCCCCCCC/C=C/[C@@H](O)[C@H](CO)NC(=O)CCCCCCNC(=O)OC`, the outcome in the assay on Priestia megaterium, with Wolbachia [8] and with Escherichia coli was inactive.

As for `C/C=C/C/C=C(/C)[C@@H](CC/C(C)=C/C=C(\C)C(=O)c1c(O)cc([C@H](C)CC/C=C/NC(=O)OC)oc1=O)OC(=O)c1ccc(F)cc1`, the MIC in the assay with Staphylococcus simulans and against Bacillus licheniformis [1] was over 64 µg/mL each time.

With `C/C=C/C/C=C(/C)C(=O)CC/C(C)=C/C=C(\C)C(=O)c1c(O)cc([C@H](C)CC/C=C/NC(=O)OC)oc1=O`, the MIC in the assay on Staphylococcus simulans worked out at 16 µg/mL (≈ 30.4 µM); with Bacillus licheniformis [1], 32 µg/mL (≈ 60.9 µM).

Take `CC/C=C/C/C=C(/C)[C@H](O)CC/C(C)=C/C=C(\C)C(=O)c1c(O)cc([C@H](C)CC/C=C/NC(=O)OC)oc1=O`: the MIC was found to be 0.4 µg/mL (≈ 0.738 µM) with Staphylococcus aureus [2] and 1.6 µg/mL (≈ 2.95 µM) in the assay on Priestia megaterium.

For the molecule `C/C=C/C/C=C(/C)[C@@H](CC/C(C)=C/C=C(\C)C(=O)c1c(O)cc([C@H](C)CC/C=C/NC(=O)OC)oc1=O)OC(=O)c1ccco1`, the MIC with Mycolicibacterium phlei is over 64 µg/mL; with Staphylococcus simulans, 64 µg/mL (≈ 103 µM); with Bacillus licheniformis [1], 64 µg/mL (≈ 103 µM).

`C/C=C/C/C=C(/C)[C@@H](CC/C(C)=C/C=C(\C)C(=O)c1c(O)cc([C@H](C)CC/C=C/NC(=O)OC)oc1=O)OC(=O)c1cccs1`: the minimal inhibitory concentration (MIC) with Staphylococcus simulans and in the assay with Bacillus licheniformis [1] was over 64 µg/mL throughout.

`C/C=C/C/C=C(/C)[C@@H](CC/C(C)=C/C=C(\C)C(=O)c1c(O)cc([C@H](C)CC/C=C/NC(=O)OC)oc1=O)OC(=O)CCCCCCCCC`: the MIC with Staphylococcus simulans was over 64 µg/mL; in the assay on Bacillus licheniformis [1], 64 µg/mL (≈ 93.9 µM).
